The values that follow are results of earlier work, collected in PMC2821159 (Bioorganic & medicinal chemistry, 2009).

This series concerns protein kinases.

As for `CNc1ncnc2c1c(-c1cccc(O)c1)cn2C(C)C` [Compound 4, 3-(7-isopropyl-4-(methylamino)-7H-pyrrolo[2,3-d]pyrimidin-5yl)phenol], the “inhibition against protein kinases” value is given as “poor inhibition”.
